Results on 14 substances are retold here after the OligoGym collection.

HELM strings list units from the 5' end as sugar, base in round brackets, then linkage (d deoxyribose, r ribose, m 2'-O-methyl, p phosphodiester). Strings are as the collection lists them, not checked against the first reports. ss, as = sense and antisense strand; [fl2r] = 2'-fluoro
Further: test system not given here.

For the series the following is noted: siRNA.
The substance “RNA1{r(A)p.r(G)p.r(A)p.r(U)p.r(G)p.r(U)p.r(U)p.r(C)p.r(U)p.r(C)p.r(G)p.r(U)p.r(A)p.r(A)p.r(G)p.r(G)p.r(A)p.r(C)p.r(G)p.r(T)p.r(T)}|RNA2{r(C)p.r(G)p.r(U)p.r(C)p.r(C)p.r(U)p.m(U)p.r(A)p.r(C)p.r(G)p.r(A)p.r(G)p.r(A)p.r(A)p.r(C)p.r(A)p.r(U)p.r(C)p.r(U)p.r(T)p.r(T)}$$$RNA1{StrandType:ss}|RNA2{StrandType:as}$” showed a target mRNA knockdown of 69%. In turn, “RNA1{m(U)p.r(U)p.m(A)p.r(C)p.m(A)p.r(A)p.m(A)p.r(G)p.m(G)p.r(A)p.m(U)p.r(C)p.m(U)p.r(C)p.m(C)p.r(U)p.m(C)p.r(C)p.m(C)p.r(T)p.r(T)}|RNA2{r(G)p.r(G)p.r(G)p.m(A)p.r(G)p.r(G)p.m(A)p.r(G)p.m(A)p.r(U)p.r(C)p.r(C)p.r(U)p.r(U)p.r(U)p.r(G)p.r(U)p.m(A)p.m(A)p.r(T)p.r(T)}$$$RNA1{StrandType:ss}|RNA2{StrandType:as}$” had a target mRNA knockdown of 51%. Substance “RNA1{m(G)p.r(G)p.m(C)p.r(C)p.m(A)p.r(A)p.m(A)p.r(G)p.m(U)p.r(A)p.m(A)p.r(U)p.m(C)p.r(G)p.m(U)p.r(G)p.m(G)p.r(U)p.m(U)p.r(T)p.r(T)}|RNA2{r(A)p.r(A)p.r(C)p.r(C)p.r(A)p.r(C)p.r(G)p.r(A)p.r(U)p.r(U)p.r(A)p.r(C)p.r(U)p.r(U)p.r(U)p.r(G)p.r(G)p.r(C)p.r(C)p.r(T)p.r(T)}$$$RNA1{StrandType:ss}|RNA2{StrandType:as}$” had a target mRNA knockdown of 37%.

The substance “RNA1{m(U)p.r(A)p.r(G)p.r(C)p.m(C)p.r(A)p.r(G)p.r(A)p.r(G)p.r(C)p.m(C)p.r(A)p.r(A)p.r(A)p.r(G)p.r(A)p.r(A)p.r(G)p.r(C)p.r(T)p.r(T)}|RNA2{r(G)p.r(C)p.r(U)p.r(U)p.r(C)p.r(U)p.r(U)p.r(U)p.r(G)p.m(G)p.r(C)p.r(U)p.r(C)p.r(U)p.r(G)p.m(G)p.m(C)p.m(U)p.r(A)p.r(T)p.r(T)}$$$RNA1{StrandType:ss}|RNA2{StrandType:as}$” came in with a target mRNA knockdown of 85%. “RNA1{r(A)p.r(U)p.r(C)p.r(G)p.r(A)p.r(C)p.r(C)p.r(U)p.r(G)p.r(A)p.r(A)p.r(G)p.r(G)p.r(A)p.r(G)p.[fl2r](U)p.r(A)p.r(C)p.r(G)p.r(T)p.r(T)}|RNA2{r(C)p.r(G)p.r(U)p.[fl2r](A)p.r(C)p.r(U)p.r(C)p.r(C)p.r(U)p.r(U)p.r(C)p.r(A)p.r(G)p.r(G)p.r(U)p.r(C)p.r(G)p.r(A)p.r(U)p.r(T)p.r(T)}$$$RNA1{StrandType:ss}|RNA2{StrandType:as}$” gave a target mRNA knockdown of 82%. The substance “RNA1{r(A)p.r(G)p.r(G)p.r(A)p.r(C)p.r(G)p.r(G)p.m(U)p.r(A)p.r(C)p.r(U)p.r(U)p.m(U)p.r(C)p.r(G)p.m(A)p.r(A)p.r(A)p.r(G)p.r(T)p.r(T)}|RNA2{r(C)p.r(U)p.r(U)p.r(U)p.r(C)p.r(G)p.r(A)p.r(A)p.r(A)p.r(G)p.m(U)p.r(A)p.r(C)p.r(C)p.r(G)p.r(U)p.r(C)p.r(C)p.r(U)p.r(T)p.r(T)}$$$RNA1{StrandType:ss}|RNA2{StrandType:as}$” came in with a target mRNA knockdown of 44%. Turning to “RNA1{r(A)p.r(G)p.r(A)p.r(G)p.r(G)p.r(A)p.r(C)p.r(C)p.r(U)p.m(A)p.r(G)p.r(A)p.r(A)p.r(G)p.r(G)p.r(C)p.r(G)p.r(G)p.r(C)p.r(T)p.r(T)}|RNA2{r(G)p.r(C)p.r(C)p.r(G)p.r(C)p.r(C)p.r(U)p.r(U)p.r(C)p.r(U)p.r(A)p.r(G)p.r(G)p.r(U)p.r(C)p.r(C)p.r(U)p.r(C)p.r(U)p.r(T)p.r(T)}$$$RNA1{StrandType:ss}|RNA2{StrandType:as}$”, the target mRNA knockdown stood at 92%.

Consider “RNA1{r(G)p.r(A)p.r(C)p.r(G)p.r(U)p.r(A)p.r(A)p.r(A)p.r(C)p.r(G)p.r(G)p.r(C)p.r(C)p.r(A)p.r(C)p.r(A)p.r(A)p.r(G)p.r(U)p.r(U)p.r(C)}|RNA2{r(A)p.m(C)p.r(U)p.r(U)p.r(G)p.r(U)p.r(G)p.r(G)p.r(C)p.r(C)p.r(G)p.r(U)p.r(U)p.r(U)p.r(A)p.r(C)p.r(G)p.r(U)p.r(C)p.r(G)p.r(C)}$$$RNA1{StrandType:ss}|RNA2{StrandType:as}$”, for which the target mRNA knockdown amounted to 76%. “RNA1{m(U)p.r(U)p.m(G)p.r(G)p.m(G)p.r(G)p.m(A)p.r(A)p.m(G)p.r(C)p.m(G)p.r(G)p.m(C)p.r(C)p.m(G)p.r(G)p.m(C)p.r(G)p.m(G)p.r(T)p.r(T)}|RNA2{r(C)p.r(C)p.r(G)p.r(C)p.r(C)p.r(G)p.r(G)p.r(C)p.r(C)p.r(G)p.r(C)p.r(U)p.r(U)p.r(C)p.r(C)p.r(C)p.r(C)p.m(A)p.m(A)p.r(T)p.r(T)}$$$RNA1{StrandType:ss}|RNA2{StrandType:as}$” returned a target mRNA knockdown of 36%. “RNA1{m(U)p.r(U)p.m(A)p.r(A)p.m(G)p.r(G)p.m(A)p.r(G)p.m(A)p.r(A)p.m(G)p.r(C)p.m(U)p.r(G)p.m(A)p.r(C)p.m(G)p.r(G)p.m(C)p.r(T)p.r(T)}|RNA2{r(G)p.r(C)p.r(C)p.r(G)p.r(U)p.r(C)p.r(A)p.r(G)p.r(C)p.r(U)p.r(U)p.r(C)p.r(U)p.r(C)p.r(C)p.r(U)p.r(U)p.r(A)p.r(A)p.r(T)p.r(T)}$$$RNA1{StrandType:ss}|RNA2{StrandType:as}$” registered a target mRNA knockdown of 24%. For “RNA1{r(A)p.r(A)p.r(A)p.r(C)p.m(C)p.r(U)p.m(C)p.r(A)p.r(G)p.r(C)p.r(C)p.r(C)p.m(U)p.r(A)p.r(A)p.r(C)p.r(G)p.r(G)p.r(U)p.r(T)p.r(T)}|RNA2{r(A)p.r(C)p.r(C)p.r(G)p.r(U)p.m(U)p.r(A)p.r(G)p.r(G)p.r(G)p.r(C)p.m(U)p.r(G)p.r(A)p.r(G)p.r(G)p.r(U)p.r(U)p.r(U)p.r(T)p.r(T)}$$$RNA1{StrandType:ss}|RNA2{StrandType:as}$” the value was 79%; for “RNA1{[fl2r](C)p.r(U)p.[fl2r](C)p.r(U)p.[fl2r](C)p.r(C)p.[fl2r](U)p.r(A)p.[fl2r](C)p.r(C)p.[fl2r](U)p.r(U)p.[fl2r](C)p.r(U)p.[fl2r](C)p.r(C)p.[fl2r](U)p.r(C)p.[fl2r](U)p.r(T)p.r(T)}|RNA2{r(A)p.r(G)p.r(A)p.r(G)p.r(G)p.r(A)p.r(G)p.r(A)p.r(A)p.r(G)p.r(G)p.r(U)p.r(A)p.r(G)p.r(G)p.r(A)p.r(G)p.r(A)p.r(G)p.r(T)p.r(T)}$$$RNA1{StrandType:ss}|RNA2{StrandType:as}$”, 69%; for “RNA1{m(G)p.r(G)p.m(U)p.r(A)p.m(G)p.r(G)p.m(G)p.r(U)p.m(U)p.r(G)p.m(A)p.r(A)p.m(G)p.r(A)p.m(G)p.r(A)p.m(C)p.r(U)p.r(U)p.r(T)p.r(T)}|RNA2{r(A)p.r(A)p.r(G)p.r(U)p.r(C)p.r(U)p.r(C)p.r(U)p.r(U)p.r(C)p.r(A)p.r(A)p.m(C)p.r(C)p.r(C)p.r(U)p.m(A)p.r(C)p.r(C)p.r(T)p.r(T)}$$$RNA1{StrandType:ss}|RNA2{StrandType:as}$”, 58%. Take “RNA1{r(A)p.r(G)p.r(A)p.r(G)p.r(A)p.r(A)p.r(G)p.r(G)p.r(G)p.[fl2r](C)p.r(G)p.r(U)p.r(C)p.r(U)p.r(C)p.[fl2r](U)p.r(A)p.[fl2r](C)p.r(A)p.r(T)p.r(T)}|RNA2{[fl2r](U)p.r(G)p.[fl2r](U)p.r(A)p.r(G)p.r(A)p.r(G)p.r(A)p.r(C)p.r(G)p.r(C)p.r(C)p.r(C)p.r(U)p.r(U)p.r(C)p.r(U)p.r(C)p.r(U)p.r(T)p.r(T)}$$$RNA1{StrandType:ss}|RNA2{StrandType:as}$”: the target mRNA knockdown was determined as 71%.
